# Data reported in US12551434B2, “Zwitterionic polymer particle compositions and related methods” (WAYNE STATE UNIVERSITY, priority 2020, dated 2026).
# Read-outs that look alike come from different tables or passages of the source.
# How the values were obtained:
# healthy mice = test: Long-term safety of repeated consecutive dosing; conditions: for serum endotoxin and pro-inflammatory cytokines (TNF-α, IFN-γ, IL-6): healthy mice, oral gavage twice daily 14 days, day 0 and 14, before and 1 h after dose
# Experimental: Long-term safety of repeated consecutive dosing. […] At day 14, the lactulose/mannitol experiment was conducted to examine potential tight junction opening through the lactulose-mannitol intestinal permeability test. In addition, the ileum tissue was collected and fixed in 10% zinc fixative (BD Pharmingen™), dehydrated in ethanol, and embedded in paraffin. Five-μm cross-sections of intestine tissue were deparaffinized, rehydrated, and stained with Hematoxylin and Eosin. Histological morphology was examined using an EVOS XL Core Cell Imaging microscope. In addition, healthy mice received the same oral administered with DSPE-PCB micelle, saline, Polysorbate 80, or sodium decanoate twice daily for 14 consecutive days (the same dose as above). On day 0 and 14, before and 1 h after the oral administration, blood serum was collected and the endotoxin and pro-inflammatory cytokines (IFN-γ, IL-1β, ILL-4, IL-6, IL-12, TNF-α) were measured with Pierce LAL Chromogenic Endotoxin Quantitation Kit and the mouse magnetic Luminex® assays (Lot No: L131929).
# [1] = system: intestine epithelial tight junctions; conditions: mouse, in vivo
# Experimental: (§1) 1 h post ileum injection of the formulations, mice were euthanized and small parts of ileum (5×5 mm) near to the injection site were collected and washed with PBS. The samples were continuously fixed in 2.5% glutaraldehyde+2.5% paraformaldehyde in 0.1M PBS buffer and 4% osmium tetroxide solution and transferred into Beem® embed capsule with micro-embed resin added to embed samples. The obtained blocks were further sectioned with ultra-microtomy to obtain sections with thickness of ˜70 nm. These sections were retrieved via copper grid and stained with 1% lead citrate and 4% uranyl acetate separately, and then visualized under a JEM-100CX II electron microscope operated at 100 kV.
# Caco-2 monolayers = test: Transepithelial electrical resistance (TEER) study
# Experimental: Transepithelial electrical resistance (TEER) study. Caco-2 cells were suspended in EMEM supplemented with 20% FBS, and seeded at a density of 2×10^5 cells per well on Corning® Transwell polyester membrane cell culture inserts and incubated for 96 h. The TEER was monitored to confirm proper barrier formation and only monolayers with initial TEER values of at least 300Ω×cm^2 were used for TEER or molecular permeability experiments. Prior to the study, the medium in the apical and basolateral chambers was replaced with prewarmed EMEM. After equilibration at 37° C. for 30 min, the apical solution was replaced with Sodium decanoate, polysorbate 80 or DSPE-PCB (0.2% w/v) in EMEM. After incubation for 4 h, the TEER value of each insert was measured with EVOM2
# Epithelial volt/ohmmeter to explore the integrity of the tight junction.
# [2] = format: in vitro ADME, porcine
# Experimental: Tracking nanoparticle diffusion in mucus. Nanoparticle diffusion behavior in mucus was studied by modifying methods as described in Lai, S. K. et al. P Natl Acad Sci USA 104, 1482-1487 (2007) and Olmsted, S. S. et al. Biophys J 81, 1930-1937 (2001). Mucus was reconstituted by dissolving porcine stomach mucin in phosphate buffered saline (PBS) at 30 mg/ml. Nanogels were added into 100 μl mucus to reach a final concentration of 3% vol/vol (final particle concentration, 8.25×10^−7 wt/vol) and incubated for 1 h on a Nunc™ glass bottom dish (0.17 mm thickness for the inside bottom glass) before observation. Movies were captured with 64×oil-immersion objective in a spinning disc confocal microscope (Yokogawa CSU-X1M 5000 microlens, Zeiss LSM 800). For each nanogel sample, trajectories of n=50 particles were analyzed, and three samples were examined for each type of nanogel. MSD was calculated with the equation of MSD=<|r(t)-r(0)|^2> at a temporal resolution of 200 ms for 20 s.
# Caco-2 cells [3] = test: LDH leakage assay; conditions: % of untreated cell negative control; 1% with sonication, complete lysis, positive control
# [4] = system: intestine epithelial tight junctions; test: TEM imaging of tight junctions after ileum injection; conditions: 1 h post ileum injection
# Experimental: as §1
# [5] = system: intestinal tight junctions; test: Lactulose-mannitol intestinal permeability test; format: in vivo; conditions: healthy and diabetic mice, 1 h after ileum co-injection, vs control without micelles
# Experimental: The lactulose-mannitol intestinal permeability test. Healthy and diabetic mice remained fasted for 8 h and were restricted from water for 3 h before the experiment. Then mice received 500 μL water through oral gavage. 1 h later, the lactulose, mannitol, and free micelles were co-administered via ileum injection at the dose of 40/8/5.2 mg/ml (50 μL) and the wound is closed with wound clips. 1 h post ileum injection, the urine was collected, and the ileum tissue surrounding the injection site was collected for TEM imaging. The concentrations of lactulose and mannitol were measured using LC-MS-MS, with a mobile phase of 10 mM ammonium formate in water and acetonitrile (90:10), and an Agilent advanced bio glucan mapping column (2.1×100 mm×2.7 μm) (precursor and product: mannitol 180.7→89; lactulose 341.2→160.8).
# [6] = system: streptozotocin (STZ)-induced C57BL/6 diabetic mice; test: Blood glucose lowering on STZ-induced diabetic mice (ileum injection or oral gavage); format: in vivo; conditions: ileum injection, 20 IU/Kg, compared with saline baseline
# Experimental: Animals and diabetes induction. All animal experiments were performed according to the National Institute of Health (NIH) guidelines for animal research under a protocol approved by the Institutional Animal Care and Use Committee (IACUC) at Wayne State University. To establish streptozotocin (STZ)-induced diabetic mice model, healthy mice (C57BL/6J, male, 6-8 weeks of age, Jackson Lab) received a daily intraperitoneal injection of 5 mg/ml STZ at 50 mg/kg body weight for 5 consecutive days. 17 days after the first injection, body weight and blood glucose were measured to confirm the diabetic status. Diabetic mice with blood glucose above 300 mg/dL were selected for further in vivo test. To establish STZ-rat model, healthy rats (Sprague Dawley rat, male, ˜180 g, Charles River) received a one-time intraperitoneal injection of 65 mg/kg STZ. 10 days after injection, diabetic rats with blood glucose above 300 mg/dL were selected for further in vivo test.
# Ileum injection surgery. Mice received buprenorphine SR subcutaneously and surgical anesthesia was managed by isoflurane inhalation. The surgical site (abdomen) was shaved and prepped with three alternating scrubs of betadine and alcohol. On prepped animal, a single incision (1.5-2 cm) was made through abdomen skin. About 0.5-1 cm ileum of intestine was pulled-out from the enterocoelia. […]
# Caco-2 cells [7] = test: In vitro cytotoxicity (MTT) and live/dead assay; format: cell-based, human; conditions: 0.01-1 mg/ml, 24 h
# Experimental: In vitro cytotoxicity and live/dead assay. In vitro cytotoxicity was evaluated using MTT assay with Caco-2 cells. Caco-2 cells were seeded on 96-well plates at a density of 2×10^4 cells per well in Eagle's Minimum Essential Medium (EMEM) with 20% FBS and cultured in 5% CO2 atmosphere at 37° C. for 24 h. Then the cells were washed twice with HBSS and incubated with 100 μl of DSPE-PCB micelle or Polysorbate 80 solutions in EMEM with concentrations of 0.01, 0.1, and 1.0 mg/ml, respectively. After 24 h of incubation at 37° C., the DSPE-PCB micelle and Polysorbate 80 solution were replaced with 100 μL of MTT solution (0.5 mg/ml in HBSS), and the cells were incubated for an additional 4 h at 37° C. Subsequently, the supernatant was carefully removed and 150 μL of dimethyl sulfoxide (DMSO) was added to each well. The absorbance of the resultant solutions was measured at 570 nm using a microplate reader (Bio-Rad, USA). Untreated cells were used as negative control for 100% cell viability. Cell viability was expressed as percentage of absorbance relative to the control. Live/dead assay was conducted by staining the cells with 100 μL of PBS buffer containing 2 μM Calcein and 4 μM ethidiumhomodimer-1 (Live/Dead viability/cytotoxicity kit, Invitrogen, CA, USA). The cells were incubated at room temperature for 30 minutes and observed by the EVOS FL fluorescence microscope (AMG).
# Caco-2 cells [8] = system: Caco-2 cells
# [9] = system: Caco-2 cells (PAT1 overexpression); test: Cell uptake of micelle/polystyrene nanoparticles (confocal, flow cytometry); format: cell-based, human
# Experimental: Cell uptake of polystyrene nanoparticles for Caco-2 and 3T3 cells. Caco-2 human colon epithelial cells and NIH 3T3 mouse embryonic fibroblast cells were used as received from the American Type Culture Collection without further authentication, and were cultured in Dulbecco's Modified Eagle's Medium (DMEM) and Eagle's Minimum Essential Medium (EMEM) at 37° C. in a 5% CO2 environment respectively. […] Cells were seeded in a 12-well plate at a density of 1×10^5 cells per well overnight, washed twice with pre-wared PBS, and incubated with DSPE-PCB/polystyrene nanoparticles in culture medium at 37° C. for 2 h. […] Cellular uptake of DSPE-PCB/polystyrene nanoparticles in different groups was examined by an Zeiss LSM 780 confocal laser scanning microscope. The Z-stack method was used for three-dimensional visualization, where the section thickness was 2.5 μm, the step interval was 2 m, and the total z-stack length was 44 μm (23 slices). Fluorescent signal was quantified by using the image J software. Cellular uptake was also quantitively measured with flow cytometry (BD FACSAria II flow cytometer) and analyzed with FlowJo X software.
compound,measurement,setting,value
"DSPE lipid conjugated with poly(N-methacryloyloxyethyl-N,N-dimethylammonium-α-N-methylcarboxybetaine) [DSPE-PCB micelles]",small intestine histology (H&E) on day 14,"healthy mice; mouse, in vivo, po",no significant structural damage
same,"tight junction opening, urine lactulose/mannitol test at day 14","healthy mice; mouse, in vivo, po",no significant tight junction opening
same,tight junction morphology (TEM),[1],intact tight junctions
same,TEER / permeability of Caco-2 cell layers,Caco-2 monolayers; Caco-2,did not increase the permeability of Caco-2 cell layers
same,MSD relative to Polysorbate 80 micelles,[2],~12 times
Triton X-100,LDH leakage level,Caco-2 cells [3],240%
CCCCCCCCCC(=O)[O-].[Na+] [sodium decanoate],"serum endotoxin and pro-inflammatory cytokines (TNF-α, IFN-γ, IL-6)",healthy mice,observable increase
same,tight junction morphology (TEM),[4],even more severe tight junction opening
same,TEER / permeability of Caco-2 cell layers,"Caco-2 monolayers; 0.2% w/v, 4 hours",drastically decreased TEER values
same,excretion ratio of lactulose to mannitol (L/M) in urine,[5],drastically higher L/M ratio values
Native insulin: native insulin not encapsulated by any carrier,glucose-lowering effect,[6],hardly achieved any glucose-lowering effect
Polysorbate 80,"serum endotoxin and pro-inflammatory cytokines (TNF-α, IFN-γ, IL-6)",healthy mice,observable increase
same,"cytotoxicity (cell viability, MTT, live/dead staining)",Caco-2 cells [7],no significant cytotoxicity
same,lactate dehydrogenase (LDH) release,Caco-2 cells [8],no significant lactate dehydrogenase (LDH) release
same,tight junction morphology (TEM),[1],severe tight junction opening
same,TEER / permeability of Caco-2 cell layers,Caco-2 monolayers; Caco-2,drastically decreased TEER values
same,excretion ratio of lactulose to mannitol (L/M) in urine,[5],drastically higher L/M ratio values
same,cellular uptake,"[9]; Caco-2 cells compared with 3T3 cells, 2 h, 37 C",no observable polysorbate 80 uptake
N[C@@H](Cc1c[nH]c2ccccc12)C(=O)O [L-tryptophan],inhibition of Caco-2 uptake of DSPE-PCB micelle particles by PAT1 substrates,"[9]; pretreatment 5 mg/ml, 1 h",significantly inhibited
